Measurements as given in paper PMC8079988, “Inhibition of TMEM16A by Natural Product Silibinin: Potential Lead Compounds for Treatment of Lung Adenocarcinoma” (Frontiers in Pharmacology, 2021).

Target: T1, TMEM16A (Mus musculus, UniProt Q8BHY3)
T1 construct: gene Ano1
T1 sequence (Q8BHY3 1-960): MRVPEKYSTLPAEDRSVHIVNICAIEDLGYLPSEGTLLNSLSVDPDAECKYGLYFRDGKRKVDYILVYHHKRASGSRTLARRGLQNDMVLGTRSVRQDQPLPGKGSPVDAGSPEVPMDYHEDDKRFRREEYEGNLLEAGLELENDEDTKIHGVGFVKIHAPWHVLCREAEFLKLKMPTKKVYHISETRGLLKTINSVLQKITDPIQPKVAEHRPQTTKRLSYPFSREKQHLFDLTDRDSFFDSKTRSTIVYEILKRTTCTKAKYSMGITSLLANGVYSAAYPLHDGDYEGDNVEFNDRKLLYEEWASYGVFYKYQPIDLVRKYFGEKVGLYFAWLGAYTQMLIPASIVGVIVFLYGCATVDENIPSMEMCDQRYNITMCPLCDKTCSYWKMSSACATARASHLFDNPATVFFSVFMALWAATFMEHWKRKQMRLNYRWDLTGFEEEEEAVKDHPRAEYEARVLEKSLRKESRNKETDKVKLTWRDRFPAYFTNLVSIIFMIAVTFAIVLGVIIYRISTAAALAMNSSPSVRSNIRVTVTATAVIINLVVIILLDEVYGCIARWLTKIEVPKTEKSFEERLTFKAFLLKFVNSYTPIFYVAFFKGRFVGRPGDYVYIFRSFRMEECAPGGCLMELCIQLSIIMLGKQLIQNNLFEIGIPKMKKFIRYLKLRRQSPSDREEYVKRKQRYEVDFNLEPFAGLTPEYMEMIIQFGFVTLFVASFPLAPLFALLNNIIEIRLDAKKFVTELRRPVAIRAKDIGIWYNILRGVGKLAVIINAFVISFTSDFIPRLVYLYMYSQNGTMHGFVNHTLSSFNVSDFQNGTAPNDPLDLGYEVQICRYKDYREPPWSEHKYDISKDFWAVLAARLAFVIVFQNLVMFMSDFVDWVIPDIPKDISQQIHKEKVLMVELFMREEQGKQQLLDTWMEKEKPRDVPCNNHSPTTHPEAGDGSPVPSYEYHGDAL
Experiment: whole-cell patch clamp in LA795 cells; YFP quenching; site-directed mutagenesis
Assay type: cell-based

For `COc1cc(C2Oc3cc([C@H]4Oc5cc(O)cc(O)c5C(=O)[C@@H]4O)ccc3OC2CO)ccc1O` (stereo partly shown) [silibinin], the IC50 was 30.9 ± 2.1 µM.
